According to PubChem BioAssay (NCI):
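Growth conditions: 96-well plates. Treatment: test compound, 48 hours, 5 concentrations. Analysis: linear interpolation between bracketing concentrations; unreached endpoints set to highest concentration. TGI denotes the concentration required for complete inhibition of growth.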

How the values were obtained:
Assay in all cases: NCI tumour cell line growth inhibition, 48 h
[1] = system: NCI-H226 lung
[2] = system: SK-MEL-28 melanoma
[3] = system: UO-31 renal
[4] = system: MOLT-4 leukemia
[5] = system: M19-MEL melanoma
[6] = system: DMS 273 small cell lung
[7] = system: SF-295 CNS
[8] = system: COLO 205 colon
[9] = system: TK-10 renal
[10] = system: SNB-19 CNS
[11] = system: BT-549 breast

SMILES	TGI [1] [µM]	TGI [2] [µM]	TGI [3] [µM]	TGI [4] [µM]	TGI [5] [µM]	TGI [6] [µM]	TGI [7] [µM]	TGI [8] [µM]	TGI [9] [µM]	TGI [10] [µM]	TGI [11] [µM]
COc1ccc(CNc2cnc3ccc(N)cc3n2)cc1	> 100	> 100	> 100	> 100	> 100	> 100	> 100	34.6	> 100	> 100	–
COC(=O)CNC(=O)C(CSC(=O)OCC1c2ccccc2-c2ccccc21)NC(=O)CCC(NC(=O)OCC1c2ccccc2-c2ccccc21)C(=O)OC (stereo unspecified)	> 100	> 100	35	56.8	–	–	31.2	78.9	> 100	68.1	31.3
COC(=O)[C@]1(C)CCC[C@@]2(C)C1CC[C@]13C=C(C(C)C)[C@H](CC21)CC3(Cl)C#N (stereo partly specified)	75.4	> 100	> 100	> 100	–	–	> 100	> 100	> 100	> 100	86
O=c1c2c3c(sc2[nH]c(=S)n1-c1ccccc1)CCCc1ccc([N+](=O)[O-])cc1-3	> 100	> 100	> 100	52	–	–	> 100	> 100	> 100	> 100	72.6
CCOC(=O)CSc1nc(N)c2c(-c3ccccc3)c3c(nc2n1)CCCC3	> 100	> 100	> 100	> 100	–	–	> 100	> 100	> 100	> 100	> 100
CC(C)Oc1cccc(N2C(n3ccnc3)=Nc3ccncc3S2(=O)=O)c1	42.5	33	38.3	14.8	–	–	> 100	24.7	24.5	36	29
Cc1ccc(-c2cc(-c3ccco3)c(C#N)c(=S)[nH]2)cc1	> 100	> 100	> 100	> 100	–	–	> 100	> 100	> 100	> 100	> 100
CN(C)c1ccc(/C=C(\NC(=O)c2ccccc2)C(=O)NC(CC(=O)O)C(=O)O)cc1 (stereo unspecified)	> 100	> 100	> 100	> 100	–	–	> 100	> 100	> 100	> 100	> 100
CN(C)C(=O)C(F)(F)C(c1ccc(F)cc1)C1C(=O)N(C)C(=O)N(C)C1=O (stereo unspecified)	> 100	> 100	> 100	> 100	–	–	> 100	> 100	> 100	> 100	> 100
Clc1cccc(-c2sc(-c3cccs3)cc2Cc2cccs2)c1	> 10	> 10	> 10	> 10	–	–	> 10	> 10	> 10	> 10	> 10
O=C(O)c1nc2ccc(C(F)(F)F)cc2[nH]c1=O	> 100	> 100	> 100	> 100	–	–	> 100	> 100	> 100	> 100	> 100
Cc1ccc2cccc(-c3cccc4ccccc34)c2n1	74.5	> 100	51.4	40.6	–	–	69.8	> 100	36.2	> 100	> 100
CN1CSC(=S)N(c2cccc(C(F)(F)F)c2)C1	61.8	52	45.3	57	–	–	51.2	37.2	72.3	61	44.2
CC1CC(N2CCOCC2)=Nc2ccccc2N1C (stereo unspecified)	> 100	> 100	> 100	> 100	–	–	> 100	> 100	> 100	> 100	> 100
Cc1cc([N+](=O)[O-])c(C)c2c1[nH]c1ccc(Cl)cc12	> 100	> 100	> 100	> 100	> 100	> 100	> 100	> 100	> 100	> 100	–
Cn1nc(-c2ccc(S(=O)(=O)/N=C(\NN)Nc3ccc(Cl)cc3)s2)cc1C(F)(F)F	32.6	33.8	28	22.4	–	–	31.3	37.6	35.6	30.2	33.3
